The values that follow come from US8685726B2, “Small molecules supporting pluripotent cell growth and methods thereof” (Viacyte, Inc., priority 2009, dated 2014).

Counter-ions that a name gives are not always drawn. Like-named read-outs stand apart in the source and are kept apart here. Bounds are passed on as bounds.

In this assay the test system is hES cells. The experiment in a line: Alkaline phosphatase staining screen of LOPAC1280 library (primary screen and secondary dose titration). It is filed as cell-based, human. Particulars: secondary screen, dilution series, 48 hours with compound, AP staining, StemPro hESC SFM, 96-well, read-out: [Concentration] minimal effective concentration negatively impacting hES cell cultures. Here is the method: FIG. 1. Representation of antagonists/modulators of neurotransmitter/hormone receptors identified by compound screening in hES cells. […] Receptor antagonists identified in the primary screen are shown (left column). The screen was performed using compounds at 10 μM. The secondary dose titration assay is shown (50-0.1 μM columns), and receptor class targeted by each compound and action is indicated.
Applying this approach in 96- and 384-well plates, quantitative and statistically significant cell-counting data was generated confirming the effect of AG825, an inhibitor of ERBB2 signaling, on self-renewal. About 3×10^4 hES cells per well were plated on MATRIGEL™ in StemPro® hESC SFM in 96-well plates and cultured for about 24 hours. The media was then changed, with new media containing 10 μM of a compound from the LOPAC1280 library (partial list in Table 1), and the cultures incubated for an additional 48 hours. The cultures were then fixed and stained for endogenous alkaline phosphatase, a marker of undifferentiated hES cells, activity.
The LOPAC1280 collection (Sigma Cat# LO1280), a library of small organic molecules with well-characterized pharmacological activities, was screened using the above described alkaline phosphatase detection assay in 96-well plates (16 plates total). Each 96-well assay was performed with 80 compounds (1 compound per well) and 16 wells as DMSO carrier negative controls. Greater than about 50 compounds were identified in the primary screen as impacting hES cell growth & expansion, which was then further determined to be a group of 38 molecules (Table 1) after secondary screening, and when known generally cytotoxic molecules were excluded (for example, 5-Azacytidine). Pathways that are likely to be impacted by these molecules, and therefore possibly important in hES cells, included those involving signalling by NFκB, eNOS, RAR(a), calcium channels, tachykinin signaling, guanylyl cyclase, Src and Jak2.
Secondary screening was performed using the same assay, but with a dilution series of 0.1-50 μM of a compound as compared to the 10 μM initially used. The minimal effective concentration for each compound is indicated (Table 1). […] While a role for GABA signaling in hES cell self-renewal has been highlighted previously (Ludwig et al., 2006), it has not been examined under other defined media conditions. Potential roles for other neurotransmitters in undifferentiated pluripotent stem cells have not been characterized.

Regarding `COc1cc([C@@H]2c3cc4c(cc3[C@H](O)[C@H]3COC(=O)[C@H]23)OCO4)cc(OC)c1OC` [Podophyllotoxin], under “Homo sapiens”, the minimal effective concentration was under 0.1 µM.

With `CC(C)[C@H]1c2ccc(F)cc2CC[C@@]1(CCN(C)CCCc1nc2ccccc2[nH]1)OC(=O)C1CC1` [NNC 55-0396], the minimal effective concentration stood at 25 µM.

Take `N=C(N)c1ccc(OCCCCCOc2ccc(C(=N)N)cc2)cc1` [Pentamidine isethionate]: the minimal effective concentration (Homo sapiens) was 1 µM.

Regarding Vinblastine sulfate salt, the minimal effective concentration is on record as under 0.1 µM.

On to `COc1ccc(CCCOC(Cn2ccnc2)c2ccc(OC)cc2)cc1` (stereo not shown) [SKF 96365], for which the minimal effective concentration (Homo sapiens) came out at 25 µM.

For `C/C=C(/C)C(=O)O[C@H]1C(C)=C2[C@H]([C@@H]1OC(=O)CCCCCCC)[C@@](C)(OC(C)=O)C[C@H](OC(=O)CCC)[C@@]1(O)[C@H]2OC(=O)[C@@]1(C)O` [Thapsigargin], where the note is “Homo sapiens”, the minimal effective concentration was under 0.1 µM.

Consider `CC(Cc1ccc(O)c(O)c1)C(C)Cc1ccc(O)c(O)c1` (stereo not shown) [Nordihydroguaiaretic acid], for which the minimal effective concentration (Homo sapiens) amounted to 5 µM.

`Nc1ccc(CCN2CCN(c3cccc(C(F)(F)F)c3)CC2)cc1` [PAPP]: the minimal effective concentration amounted to 25 µM.

For the compound `O=C(/C=C/c1ccc(O)c(O)c1)OCCc1ccccc1` [Caffeic acid phenethyl ester], the minimal effective concentration (Homo sapiens) is under 0.1 µM.

With `CCCCCCCC/C=C\CCCCCCCC(=O)NCCc1ccc(O)c(O)c1` [N-Oleoyldopamine], the minimal effective concentration (Homo sapiens) came to 5 µM.

`Cc1cc(N)c2ccccc2[n+]1CCCCCCCCCC[n+]1c(C)cc(N)c2ccccc21` [Dequalinium chloride hydrate]: the minimal effective concentration (Homo sapiens) was determined as 5 µM.

As to `COCC(=O)O[C@]1(CCN(C)CCCc2nc3ccccc3[nH]2)CCc2cc(F)ccc2[C@@H]1C(C)C` [Mibefradil dihydrochloride], the minimal effective concentration (Homo sapiens) was 25 µM.

Regarding `C[C@@H]1O[C@@H](O[C@H]2C[C@@H](O)[C@]3(CO)[C@H]4[C@H](O)C[C@]5(C)[C@@H]([C@@H]6COC(=O)C6)CC[C@]5(O)[C@@H]4CC[C@]3(O)C2)[C@H](O)[C@H](O)[C@H]1O` [Dihydroouabain], the minimal effective concentration was 1 µM.

As for `Cc1nc(-c2ccc(-c3ccc(C(=O)N4CCc5cc6c(cc54)C4(CCN(C)CC4)CO6)cc3)c(C)c2)no1` [SB 224289 hydrochloride], the minimal effective concentration (Homo sapiens) worked out at 25 µM.

As for `CC1=C(/C=C/C(C)=C/C=C/C(C)=C/C(=O)Nc2ccc(O)cc2)C(C)(C)CCC1` [Retinoic acid p-hydroxyanilide], the minimal effective concentration was 1 µM.

For the compound `CNC(=O)[C@H]1O[C@@H](n2cnc3c(NCc4cccc(I)c4)ncnc32)[C@H](O)[C@@H]1O` [IB-MECA], the minimal effective concentration was determined as 50 µM.

For `N#C/C(=C\c1ccc(O)c(O)c1)C(=O)NCc1ccccc1` [Tyrphostin AG 490], the minimal effective concentration came out at 25 µM.

In the case of `Oc1cc(-c2ccccc2)nc2nc(Cl)ccc12` [7-Chloro-4-hydroxy-2-phenyl-1,8-naphthyridine], the minimal effective concentration (Homo sapiens) is 5 µM.

On to `C=CC1=C(C)c2cc3[nH]c(cc4nc(cc5[nH]c(cc1n2)c(C)c5CCC(=O)O)C(CCC(=O)O)=C4C)c(C)c3C=C` [Protoporphyrin IX disodium], for which the minimal effective concentration (Homo sapiens) stood at 10 µM.

Regarding `CC(C)(C)c1ccc(C(O)CCCN2CCC(C(O)(c3ccccc3)c3ccccc3)CC2)cc1` (stereo not shown) [Terfenadine], the minimal effective concentration (Homo sapiens) was determined as 25 µM.

With `C[C@H]1CCC/C=C/[C@@H]2C[C@H](O)C[C@H]2[C@H](O)/C=C/C(=O)O1` [Brefeldin A], the minimal effective concentration was under 0.1 µM.

Regarding Ivermectin, the minimal effective concentration is 5 µM.

In the case of `CC[N+](CC)(CC)CCOc1ccc(/C=C/c2ccccc2)cc1` [MG 624], the minimal effective concentration (Homo sapiens) turned out to be 0.1 µM.

For `CCN(CC)CCCC(C)Nc1c2ccc(Cl)cc2nc2ccc(OC)cc12` (stereo not shown) [Quinacrine dihydrochloride], the minimal effective concentration (Homo sapiens) is 10 µM.

Turning to `Ic1ccccc1CNC1C2CCN(CC2)C1C(c1ccccc1)c1ccccc1.O=C(O)C(=O)O` [L-703,606 oxalate], the minimal effective concentration was 25 µM.

Consider `CC[n+]1c(/C=C/C=C2/N(C)c3ccccc3C2(C)C)sc2ccccc21.[I-]` [AC-93253 iodide], for which the minimal effective concentration was determined as 5 µM.

On to `Clc1ccc(C(c2ccc(Cl)cc2)n2cc[n+](CC(OCc3ccc(Cl)cc3Cl)c3ccc(Cl)cc3Cl)c2)cc1` (stereo not shown) [Calmidazolium chloride], for which the minimal effective concentration (Homo sapiens) came out at 5 µM.

Take `CC1(C)CCC2=C(O1)c1ccccc1C(=O)C2=O` [beta-Lapachone]: the minimal effective concentration (Homo sapiens) was 5 µM.

As to `O=c1[nH]c2ccccc2n1CCCN1CCC(n2c(=O)[nH]c3cc(Cl)ccc32)CC1` [Domperidone], the minimal effective concentration (Homo sapiens) worked out at 25 µM.

As for `CN(C)S(=O)(=O)c1ccc2c(c1)/C(=C/c1cc3c([nH]1)CCCC3)C(=O)N2` [SU 6656], the minimal effective concentration (Homo sapiens) amounted to 25 µM.

As to `Oc1cc2c(cc1O)CN(C(=S)NCCc1ccc(Cl)cc1)CCC2` [Capsazepine], where the note is “Homo sapiens”, the minimal effective concentration was 5 µM.

Take `C[C@@H]1O[C@@H](O[C@H]2C[C@@H](O)[C@]3(CO)[C@H]4[C@H](O)C[C@]5(C)[C@@H](C6=CC(=O)OC6)CC[C@]5(O)[C@@H]4CC[C@]3(O)C2)[C@H](O)[C@H](O)[C@H]1O` [Ouabain]: the minimal effective concentration (Homo sapiens) was under 0.1 µM.

Take `CNc1ccc2oc(C[C@H]3O[C@@]4(CC[C@H]3C)O[C@H]([C@H](C)C(=O)c3ccc[nH]3)[C@H](C)C[C@H]4C)nc2c1C(=O)O` [Calcimycin]: the minimal effective concentration (Homo sapiens) was found to be 1 µM.

Regarding `c1ccc2c(c1)[I+]c1ccccc1-2` [Diphenyleneiodonium chloride], under “Homo sapiens”, the minimal effective concentration was 0.1 µM.

As to `COC(=O)C1=C(C)NC(C)=C(C(=O)OC(C)(C)CN(C)CCC(c2ccccc2)c2ccccc2)C1c1cccc([N+](=O)[O-])c1` (stereo not shown) [Lercanidipine hydrochloride hemihydrate], under “Homo sapiens”, the minimal effective concentration is 10 µM.

As to `COc1cc2c(cc1O)CC[C@@H]1[C@@H]2CC[C@]2(C)[C@@H](O)CC[C@@H]12` [2-methoxyestradiol], the minimal effective concentration is given as 10 µM.

Take `N.S=C(S)N1CCCC1` [Ammonium pyrrolidinedithiocarbamate]: the minimal effective concentration worked out at 10 µM.
